Reference: PubChem BioAssay (NCI)
Where “and” joins values, the source holds several entries; their conditions need not be identical. Equal entries are not always repeated.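 A five-concentration, 48-hour dose response in 96-well plates underlies each endpoint, interpolated linearly between surrounding concentrations. GI50: concentration for 50% inhibition of growth. At the TGI there is no net growth.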

What was measured:
Experiment in all cases: growth of human tumour cells (NCI), 48 h
[1] = tested on: KM12 colon
[2] = tested on: NCI-H522 lung
[3] = tested on: EKVX NSCLC
[4] = tested on: OVCAR-3 ovarian
[5] = tested on: HOP-92 NSCLC
[6] = tested on: A498 renal
[7] = tested on: HL-60(TB) leukemia
[8] = tested on: SN12C renal
[9] = tested on: SK-OV-3 ovarian
[10] = tested on: SK-MEL-2 melanoma

Row | Compound | GI50 [1] | TGI [1] | GI50 [2] | TGI [2] | GI50 [3] | TGI [3] | GI50 [4] | TGI [4] | GI50 [5] | TGI [5] | GI50 [6] | TGI [6] | GI50 [7] | TGI [7] | GI50 [8] | TGI [8] | GI50 [9] | TGI [9] | GI50 [10] | TGI [10]
1 | CCCCCCCCCCCCOC1C(C(CC(=O)N2CCN(Cc3ccc4c(c3)OCO4)CC2)NS(=O)(=O)c2cc(Cl)cc(Cl)c2)OC2OC(C)(C)OC21 (stereo not drawn) | 18.1 µM | > 100 µM | 26.9 µM | > 100 µM | 19.1 µM | > 100 µM | 20.3 µM | > 100 µM | 15.1 µM | > 62.8 µM | 43.4 µM | > 100 µM | 10.8 µM | 78.3 µM | 15.6 µM | 43.2 µM | > 100 µM | > 100 µM | 47.9 µM | > 100 µM
2 | CC1=C2[C@@H](CC1)[C@]1(C)O[C@@](C3CC3)(C[C@H]1OC(=O)CO)[C@H]2OC(=O)/C=C/c1ccccc1 | 16.6 µM | 32.3 µM | 15.9 µM | 32.4 µM | 11.5 µM | 25.1 µM | 15.3 µM | 29.2 µM | 13.4 µM | 26.7 µM | 0.0998 µM | 0.605 µM | 15.6 µM | 42.6 µM | 0.736 µM | 25.4 µM | 15.6 µM | 29.6 µM | 18.1 µM | 36.1 µM
3 | Nc1nc(=S)[nH]c(C(=O)Nc2nccs2)c1-c1ccccc1 |  | > 100 µM |  | > 100 µM |  | > 100 µM |  | > 100 µM |  | > 100 µM |  | > 100 µM |  | > 100 µM |  | > 100 µM |  | > 100 µM |  | > 100 µM
4 | C#CC#CC#CC#CC#CC#CC#CC#CC[C@@H]1OC[C@@H](COC(=O)O[C@@H](C(=O)O[C@H]2C[C@@]3(O)[C@@H](OC(=O)c4ccccc4)[C@@H]4[C@]5(OC(C)=O)CO[C@@H]5C[C@H](O)[C@@]4(C)C(=O)[C@H](OC(C)=O)C(=C2C)C3(C)C)[C@@H](NC(=O)c2ccccc2)c2ccccc2)O1 | 0.191 µM | > 33.3 µM | 0.367 µM | > 17.6 µM | 2.25 µM | > 33.3 µM | 0.142 µM |  |  | > 33.3 µM | 0.332 µM | > 6.73 µM | 0.163 µM | > 33.3 µM | 1.03 µM | > 33.3 µM | 0.897 µM | > 33.3 µM | 1.28 µM | > 33.3 µM
5 | CC1OC(OC2C(O[C@H]3CC[C@@]4(C)C(=CC[C@H]5[C@@H]6C[C@@H]7O[C@]8(CC[C@@H](C)CO8)[C@@H](C)[C@@H]7[C@@]6(C)CC[C@@H]54)C3)OC(CO)C(OC3OC(CO)C(O)C3O)C2O)C(O)C(O)C1O (stereo partly drawn) | 0.287 µM | 2.39 µM and 0.849 µM | 1.23 µM | 1.77 µM and 2.47 µM | 1.05 µM | 1.77 µM and 2.23 µM | 1.49 µM | 1.79 µM and 2.82 µM | 1.22 µM | 1.98 µM and 2.46 µM | 0.733 µM | 1.62 µM and 1.98 µM | 0.506 µM | 1.77 µM and 1.89 µM | 0.243 µM | 1.22 µM and 0.678 µM | 1.29 µM | 1.76 µM and 2.55 µM | 1.46 µM | 1.82 µM and 2.78 µM
6 | CCSc1ncc(Br)c(Sc2nc(N)nc3nc[nH]c23)n1 | 7.05 µM | > 100 µM | 3.18 µM | 64.9 µM | 3.4 µM | > 100 µM | 2.55 µM | 25 µM | 1.97 µM | 43.4 µM | 10.1 µM | > 100 µM | 19.8 µM | 88.6 µM | 4.52 µM | > 100 µM | 2.76 µM | 48.9 µM | 4.19 µM | > 100 µM
7 | Nc1ncnc2c1nc(Cl)n2C1OC(CO)C(O)C1O (stereo not drawn) |  | > 100 µM |  | > 95.3 µM |  | > 71.1 µM |  | > 100 µM |  | > 66.2 µM |  | > 100 µM |  | 3.97 µM |  | > 100 µM |  | > 100 µM |  | > 100 µM
8 | COc1ccc(C(=O)O/N=C2/CCCCC2CN(C)C)cc1 (stereo not drawn) |  | > 100 µM |  | > 100 µM |  | > 100 µM |  | > 100 µM |  | > 100 µM |  | > 100 µM |  | > 100 µM |  | > 100 µM |  | > 100 µM |  | > 100 µM
